Measured values reported in US9163018B2, “Method of treatment of age-related macular degeneration (AMD)” (Prana Biotechnology Limited, priority 2006, dated 2015).

Tests used:
[1] = biological target: T1, Aβ 1-42 (Homo sapiens, UniProt P05067); test: Fluorometric H2O2 assay (inhibition of Abeta H2O2 production); format: biochemical; conditions: concentration required to inhibit 50% of Abeta H2O2 production; read-out: H2O2 IC50
T1 construct: The reaction solutions contained Aβ 1-42 at concentrations
T1 sequence (P05067 672-713 limits assumed): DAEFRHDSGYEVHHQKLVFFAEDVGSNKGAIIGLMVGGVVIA
Method: Assay 1. Fluorometric H2O2 Assay
A fluorometric assay was used to test the ability of a test compound to inhibit hydrogen peroxide generation by Aβ in the presence of copper based on dichlorofluoroscein diacetate (DCF; Molecular Probes, Eugene Oreg.). The DCF solution (5 mM) in 100% dimethyl sulphoxide (previously purged with argon for 2 hr at 20° C.) was deacetylated in the presence of 0.25M NaOH for 30 min and neutralized at pH 7.4 to a final concentration of 1 mM. Horseradish peroxidase (HRP) stock solution was prepared to 1 μM at pH 7.4. The reactions were carried out in PBS, pH 7.4 in a 96 well plate (total volume=250 μl/well). […] The reaction mixture was incubated at 37 C for 60 min. […] H2O2 concentration may be established by comparing fluorescence with the H2O2 standards, Inhibition of Aβ H2O2 production was assayed by including a given concentration of test compound(s) in the test wells.

[2] = tested on: primary cortical neuronal cultured cells; test: Test compound cytotoxicity, MTS assay, primary cortical neuronal cultures; format: cell-based, mouse; conditions: for Cytotox (% viable) Neuronal cells at 1 μM: 1 μM test compound; for Cytotox (% viable) Neuronal cells at 10 μM: 10 μM test compound
Method: Assay 2. Neurotoxicity Assays
Primary Cortical Neuronal Cultures
Media was then replaced with Neurobasal media (Invitrogen Life Technologies) and B27 supplements (Invitrogen Life Technologies). Cultures were maintained at 37° C. in 5% CO2. Prior to experimentation, the culture medium was replaced with Neurobasal media and B27 minus antioxidants (Invitrogen Life Technologies).
(§1) Assay 3. MTS Assay for Cell Viability
(§2) Cell viability is determined using the MTS assay. Culture medium is replaced with fresh neurobasal medium plus B27 supplements minus antioxidants. 1/10th volume MTS solution (Cell Titre 96 Aqueous One, Promega Corporation) and incubated at 37° C., 2 hrs. 200 microliter aliquots are measured with a spectrophotometer at 560 nm.
Assay 4. Assay for Test Compound Cytoxicity
Neuronal cortical cells were cultured for five days as per Assay 2 in NB media and B27 supplement.
On day six the test compounds were added to the neuronal cell cultures in NB media and B27 supplement minus antioxidants.
Test compounds were dissolved in 100% DMSO to a concentration of 2.5 mM (10 mM if excess compound was weighed out per vial—then diluted to 2.5 mM).
Test compounds were not added directly to cells, instead they were added to a 48 well ‘Drug Plate’ as comprised below:
The Drug Plate was incubated at 37° C. for 15 mins. 200 μl of each well was added in triplicate to the corresponding cell plate. The cell plate was incubated at 37 C, for 4 days.
On completion of the assay, 1/10 volume MTS was added per well of plate (ie 25 μl/250 μl). The plates were incubated at 37 C for 2 hrs, and then absorbance was read at 560 nm.

[3] = tested on: Abeta in extract of post-mortem human AD brain tissue; test: BAS: human brain amyloid solubilization assay; format: biochemical; conditions: max effect across the concentration range, referenced to baseline PBS
Method: Assay 5. Human Brain Amyloid Solubilization Assay
This assay was performed in order to assess the ability of a test compound to mobilise Aβ, as an example form of amyloid, from the insoluble to the soluble phase of an extract of tissue from post mortem human AD brain.
Up to 0.5 g of plaque-bearing cortex without meninges was homogenized using a DIAX 900 homogenizer (Hendolph and Co, Kelheim, Germany) or other suitable device for three 30-second periods at full speed in 2 ml of ice-cold phosphate-buffered saline, pH 7.4. To obtain the phosphate-buffered saline-extractable fraction, the homogenate was centrifuged at 100,000×g for 30 min and the supernatant removed. Alternatively, the tissue was freeze dried then pulverized to form a powder which was then weighed out into aliquots for extraction as above. Supernatant, either freeze-dried and resuspended or in unconcentrated form, was dissolved in 200 μl of Tris-Tricine sodium dodecyl sulfate (SDS) sample buffer pH 8.3 containing 8% SDS, 10% 2-mercaptoethanol. Aliquots (10 μl) were then boiled for 10 minutes before SDS-polyacrylamide gel electrophoresis. The insoluble fraction of the cortical samples was obtained by resuspending the initial pelleted sample in 1 ml of phosphate-buffered saline, A 50-μl aliquot of this suspension was then boiled in […] of sample buffer as above.
Tris-Tricine polyacrylamide gel electrophoresis was performed by loading appropriately diluted samples on to 10% to 20% gradient gels (Novex, San Diego, Calif.) followed by transfer on to 0.2-μm nitrocellulose membrane (Bio-Rad, Hercules, Calif.). Aβ was detected by using monoclonal antibody W02, which detects residues 5 through 8, […] (or another suitable antibody) in conjunction with horseradish peroxidase-conjugated rabbit anti-mouse IgG (Dako, Denmark), and visualized by using enhanced chemiluminescence (eg ECL; Amersham Life Science, Buckinghamshire, UK). Each gel included three lanes containing 0.5, 1, and 2 ng of synthetic Aβ40 (Keck Laboratory, Yale University, New Haven, Conn.) as reference standards.
Blot films were scanned by using a suitable imaging system such as the UVP gel documentation system, and densitometry performed using suitable software, eg UVP Labworks. The dynamic range of the film/scanner was determined by using a step tablet (No. 911ST600, Kodak, Rochester N.Y.), a calibrated film exposed by the manufacturer to provided steps of known increasing intensity. The quantifiable range of signal intensity for densitometric analysis of the mono- and dimeric Aβ bands was based on the comparison with a curve obtained by scanning and densitometry of the step tablet.
All samples were analyzed at least twice, and gel loadings and dilutions were adjusted to fit within the quantifiable region of the standard curve. The proportion of ‘soluble’ to ‘insoluble’ Aβ may be used to determine the efficiency of extraction of a test compound compared with the efficiency of a known compound. The insoluble Aβ being comprised of the pelletable fraction derived from the insoluble amyloid plaque from the above cortical samples and the soluble fraction comprising monomeric and/or oligomeric soluble Aβ.

[4] = tested on: M17 human neuroblastoma cells; test: Cytotoxicity, M17 human neuroblastoma cells; format: cell-based; conditions: for Cytotox (% viable) M17 cells at 1 μM: 1 μM test compound; for Cytotox (% viable) M17 cells at 10 μM: 10 μM test compound
Method: as §1, §2

[5] = biological target: T2, Abeta:Zn (25:50 μM) Synthetic Aggregations (Homo sapiens, UniProt P05067); test: Disaggregation of Abeta:Zn synthetic aggregates (ThT fluorescence); format: biochemical; conditions: for Disaggregation % Aggregate reduction at 5 μM: 5 μM test compound; for EC50: Abeta:Zn 25:50 μM aggregates
T2 construct: PB Compound Mediated Dissolution of Aggregated Abeta 1-42; purchased Keck Laboratory, Yale University School of Medicine
T2 sequence (P05067 672-713 limits assumed): as above
Method: PB Compound Mediated Dissolution of Aggregated Abeta 1-42
Abeta1-42, is available from the Keck Laboratory, Yale University School of Medicine. PBS (pH 6.6): Sigma Cat# D-8662. Zn(ZnCl2): BDH Cat#100884E. (Dissolved in water in 1 mM concentration) DMSO: Ajax Cat#2225. Thioflavin T: Sigma Cat# T-3516. (Dissolved in water in 1 mM concentration)
By way of example of an amyloid composition, Abeta is dissolved in distilled water and peptide concentration is assessed by measured absorption at 214 nm in UV spectrometer. An aggregation reactive mixture (per one concentration of one testing compound) is set us as follows: Abeta: 25 μM, ZnCl2 50 μM, ThT 50 μM, PBS to make up to 500 μl. The tube is wrapped with foil and incubated at 37 degrees by rotation for 24 hours. A serial dilution of each test compound is made up in DMSO, for example: 100 μM, 500 μM, 1000 μM, 2500 μM and 5000 μM. The final concentrations are 1, 5, 10, 25 and 50 μM, 5 μl of each of these compounds is placed in a centrifuge tube and 5 μl of DMSO is added to both negative and positive control tubes. 495 μl of aggregates (after 24 hours incubation) is added to the centrifuge tube. The negative control is PBS plus ZnCl2 and ThT and DMSO. The positive control is aggregates plus DMSO. The tubes are incubated at 37 degrees for further 2 hours with rotation. Samples are measured for ThT fluorescence using an LS55 (Perkin Elmer) fluorimeter in a cuvette (500 μl volume). The excitation wavelength is 450 nm and the emission wavelength is 480 nm. Data are analyzed using graph pad prism program. The tested compounds included so called “PB” compounds.

| Compound | IC50 [1] | Cytotox (% viable) Neuronal cells at 1 μM [2] | Cytotox (% viable) Neuronal cells at 10 μM [2] | BAS max effect [3] | further results |
| --- | --- | --- | --- | --- | --- |
| Oc1cccc2ccc(CNCc3ccccn3)nc12 [PB 991] | 0.47 µM | 96% | 67% | 222% |  |
| COc1cccc(-c2cc(Cl)c3cccnc3c2O)c1 [PB 810] | < 0.7 µM | 83% | 71% | 184% |  |
| O=C(NC(=S)Nc1cccc2cccnc12)c1ccccc1 [PB 915] | 1.9 µM |  |  | 202% |  |
| COc1ccc(-c2cc(Cl)c3cccnc3c2O)cc1 [PB 814] | < 1.1 µM | 97% | 31% | 209% |  |
| Oc1c(Br)cc(-c2cc(F)cc(F)c2)c2cccnc12 [PB 853] | 0.77 µM | Neuronal cells: 95, 95% | Neuronal cells: 95, 95% | 221% |  |
| FC(F)(F)CSc1cccc2cccnc12 [PB 913] | 0.99 µM | 100% | 95% | 450% |  |
| O=c1c(-c2ccc(Cl)cc2)cnc2c(O)cccn12 [PB 1069] | 0.48 µM | 97% | 42% |  | Cytotox (% viable) M17 cells at 1 μM [4]: 41.2%; Cytotox (% viable) M17 cells at 10 μM [4]: 25.8%; Disaggregation % Aggregate reduction at 5 μM [5]: 34.8%; EC50 [5]: 11.3 µM |
| COc1ccccc1-c1cc(-c2ccccc2OC)c2cccnc2c1O [PB 862] | < 0.77 µM | 100% | 52% | 256% |  |
| O=C(CNC(=O)c1cc(O)c2cccc(O)c2n1)NCc1ccccn1 [PB 988] | > 10 µM | Neuronal cells: 93, 93% | Neuronal cells: 93, 93% | 137% |  |
| Cc1cccc(-c2cc(Cl)c3cccnc3c2O)c1 [PB 859] | < 0.67 µM | 98% | 73% | 266% |  |
| Cn1cnc2c(O)cccc21 [PB 1041] |  |  |  | 319% |  |
| CCn1cnc2c(O)c(Cl)cc(Cl)c2c1=O [PB 1115] | 0.95 µM | 93% | 58% |  | Cytotox (% viable) M17 cells at 1 μM [4]: 104.3%; Cytotox (% viable) M17 cells at 10 μM [4]: 95.9%; Disaggregation % Aggregate reduction at 5 μM [5]: 17%; EC50 [5]: > 20 µM |
| Oc1cccc2cc3ccccc3nc12 [PB 1043] |  |  |  | 175% |  |
| CCN(CC)c1ccc2cc(-c3nc4ccccc4s3)c(=O)oc2c1 [PB 981] |  |  |  | 580% |  |
| Cc1ccc2nc(-c3ccc(N(C)C)cc3)sc2c1 [PB 983] |  |  |  | 278% |  |
| OC1=NN=CC2C=CC=NC12 (centres unmarked) [PB 1044] |  |  |  | 212% |  |
| Cc1ccc2c(c1)sc(-c1ccc(N(C)C)cc1)[n+]2C [PB 982] |  |  |  | 188% |  |
| C1CNCCSCCN1 [PB 942] | < 0.1 µM |  |  | 220% |  |
| O=c1[nH]cnc2c(O)cccc12 [PB 1049] |  |  |  | 237% |  |
| Oc1cccc2nc3ccccc3nc12 [PB 1027] |  |  |  | 306% |  |
| Oc1cc2cccnc2c2cccnc12 [PB 1026] | 0.23 µM |  |  | 186% |  |
| CN(C)c1ccc(/C=C/c2nc3ccccc3s2)cc1 [PB 985] |  |  |  | 265% |  |
| O=c1ccnc2c(O)cccn12 [PB 1048] |  |  |  | 257% |  |
| COC(=O)c1nc(O)c2cccnc2c1O [PB 1046] |  |  |  | 244% |  |
| COC(=O)c1nc(Cl)c2cccnc2c1O [PB 1045] |  |  |  | 166% |  |
| CCCCc1ccc2ccc3ccc(CCCC)nc3c2n1 [PB 847] | < 2.5 µM |  |  | 271% |  |
| O=C(O)c1ccccc1Nc1cccc(C(F)(F)F)c1 [PB 233] | > 10 µM |  |  | 330% |  |
